Laboratory results reported in US12522602B2, “Derivatives having 2,3-dihydro-1H-indene or 2,3-dihydrobenzofuran moiety or pharmaceutically acceptable salt thereof and pharmaceutical compositions comprising the same” (YUHAN CORPORATION, priority 2019, dated 2026).

What follows are molecules tested on GM1 production in Jurkat cells (assay: cells). Conditions: Homo sapiens, Jurkat, 72 h.
Type: cell-based

In order of rising IC50:
1. CCCCOc1ccc(-c2ccc3c(c2)CC(C)(C)C3NC(=O)O[C@@H]2CN3CCC2CC3)cc1 (stereo partly drawn) [Example 270, (S)-quinuclidin-3-yl (5-(4-butoxyphenyl)-2,2-dimethyl-2,3-dihydro-1H-inden-1-yl)carbamate]  0.0023 µM
2. CC1(C)Cc2cc(-c3cccc(Cl)c3)ccc2C1NC(=O)O[C@@H]1CN2CCC1CC2 (stereo partly drawn) [Example 78, (S)-quinuclidin-3-yl (5-(3-chlorophenyl)-2,2-dimethyl-2,3-dihydro-1H-inden-1-yl)carbamate]  0.0035 µM
3. CC1(C)Cc2cc(-c3ccc(OCC4CC4)nc3)c(F)cc2C1NC(=O)O[C@@H]1CN2CCC1CC2 (stereo partly drawn) [Example 363, (S)-quinuclidin-3-yl (5-(6-(cyclopropylmethoxy)pyridin-3-yl)-6-fluoro-2,2-dimethyl-2,3-dihydro-1H-inden-1-yl)carbamate]  0.0087 µM
4. CCC1(CC)Cc2cc(-c3cccc(C(C)(C)C)c3)ccc2C1NC(=O)O[C@@H]1CN2CCC1CC2 (stereo partly drawn) [Example 294, (S)-quinuclidin-3-yl (5-(3-(tert-butyl)phenyl)-2,2-diethyl-2,3-dihydro-1H-inden-1-yl)carbamate]  0.0104 µM
5. CC1(C)Cc2cc(-c3ccc(OC(F)F)cc3)ccc2C1NC(=O)O[C@@H]1CN2CCC1CC2 (stereo partly drawn) [Example 86, (S)-quinuclidin-3-yl (5-(4-(difluoromethoxy)phenyl)-2,2-dimethyl-2,3-dihydro-1H-inden-1-yl)carbamate]  0.0138 µM
6. CCOc1cccc(-c2ccc3c(c2)CC(C)(C)C3NC(=O)O[C@@H]2CN3CCC2CC3)c1 (stereo partly drawn) [Example 104, (S)-quinuclidin-3-yl (5-(3-ethoxyphenyl)-2,2-dimethyl-2,3-dihydro-1H-inden-1-yl)carbamate]  0.0169 µM
7. CC1(C)Cc2cc(-c3cc4ccccc4o3)ccc2C1NC(=O)O[C@@H]1CN2CCC1CC2 (stereo partly drawn) [Example 158, (S)-quinuclidin-3-yl (5-(benzofuran-2-yl)-2,2-dimethyl-2,3-dihydro-1H-inden-1-yl)carbamate]  0.0171 µM
8. O=C(NC1CCc2cc(-c3cc(F)cc(F)c3)ccc21)O[C@@H]1CN2CCC1CC2 (stereo partly drawn) [Example 19, (S)-quinuclidin-3-yl (5-(3,5-difluorophenyl)-2,3-dihydro-1H-inden-1-yl)carbamate]  0.0203 µM
9. COCOc1ccc(-c2ccc3c(c2)CC(C)(C)C3NC(=O)O[C@@H]2CN3CCC2CC3)cc1 (stereo partly drawn) [Example 100, (S)-quinuclidin-3-yl (5-(4-(methoxymethoxy)phenyl)-2,2-dimethyl-2,3-dihydro-1H-inden-1-yl)carbamate]  0.0215 µM
10. COc1cc2c(cc1-c1ccc(OC(C)C)c(Cl)c1)CC(C)(C)C2NC(=O)O[C@@H]1CN2CCC1CC2 (stereo partly drawn) [Example 322, (S)-quinuclidin-3-yl (5-(3-chloro-4-isopropoxyphenyl)-6-methoxy-2,2-dimethyl-2,3-dihydro-1H-inden-1-yl)carbamate]  0.0244 µM
11. CCOc1ccc(F)cc1-c1ccc2c(c1)CC(C)(C)C2NC(=O)O[C@@H]1CN2CCC1CC2 (stereo partly drawn) [Example 256, (S)-quinuclidin-3-yl (5-(2-ethoxy-5-fluorophenyl)-2,2-dimethyl-2,3-dihydro-1H-inden-1-yl)carbamate]  0.0246 µM
12. CC(C)Oc1ccc(-c2cc3c(cc2F)C(NC(=O)O[C@@H]2CN4CCC2CC4)C(C)(C)C3)cc1Cl (stereo partly drawn) [Example 359, (S)-quinuclidin-3-yl (5-(3-chloro-4-isopropoxyphenyl)-6-fluoro-2,2-dimethyl-2,3-dihydro-1H-inden-1-yl)carbamate]  0.0331 µM
13. O=C(NC1CCc2ccc(-c3cc(F)c(F)cc3F)cc21)O[C@@H]1CN2CCC1CC2 (stereo partly drawn) [Example 44, (S)-quinuclidin-3-yl (6-(2,4,5-trifluorophenyl)-2,3-dihydro-1H-inden-1-yl)carbamate]  0.0352 µM
14. Cc1cc(-c2ccc3c(c2)CC(C)(C)C3NC(=O)O[C@@H]2CN3CCC2CC3)ccc1N1CCOCC1 (stereo partly drawn) [Example 151, (S)-quinuclidin-3-yl (2,2-dimethyl-5-(3-methyl-4-morpholinophenyl)-2,3-dihydro-1H-inden-1-yl)carbamate]  0.0379 µM
15. CCCCOc1ccc(F)cc1-c1ccc2c(c1)CC(C)(C)C2NC(=O)O[C@@H]1CN2CCC1CC2 (stereo partly drawn) [Example 201, (S)-quinuclidin-3-yl (5-(2-butoxy-5-fluorophenyl)-2,2-dimethyl-2,3-dihydro-1H-inden-1-yl)carbamate]  0.0382 µM
16. CCc1ccccc1-c1ccc2c(c1)CC(C)(C)C2NC(=O)O[C@@H]1CN2CCC1CC2 (stereo partly drawn) [Example 175, (S)-quinuclidin-3-yl (5-(2-ethylphenyl)-2,2-dimethyl-2,3-dihydro-1H-inden-1-yl)carbamate]  0.0428 µM
17. COc1ccc(-c2ccc3c(c2)CC(C)(C)C3NC(=O)O[C@@H]2CN3CCC2CC3)cc1C(F)(F)F (stereo partly drawn) [Example 134, (S)-quinuclidin-3-yl (5-(4-methoxy-3-(trifluoromethyl)phenyl)-2,2-dimethyl-2,3-dihydro-1H-inden-1-yl)carbamate]  0.0432 µM
18. COc1cc(-c2ccc3c(c2)CC(C)(C)C3NC(=O)O[C@@H]2CN3CCC2CC3)ccc1C (stereo partly drawn) [Example 254, (S)-quinuclidin-3-yl (5-(3-methoxy-4-methylphenyl)-2,2-dimethyl-2,3-dihydro-1H-inden-1-yl)carbamate]  0.0452 µM
19. COc1ncc(-c2ccc3c(c2)CC(C)(C)C3NC(=O)O[C@@H]2CN3CCC2CC3)cc1C(F)(F)F (stereo partly drawn) [Example 188, (S)-quinuclidin-3-yl (5-(6-methoxy-5-(trifluoromethyl)pyridin-3-yl)-2,2-dimethyl-2,3-dihydro-1H-inden-1-yl)carbamate]  0.0462 µM
20. CCOc1ccc(Cl)c(-c2ccc3c(c2)CC(C)(C)C3NC(=O)O[C@@H]2CN3CCC2CC3)c1 (stereo partly drawn) [Example 241, (S)-quinuclidin-3-yl (5-(2-chloro-5-ethoxyphenyl)-2,2-dimethyl-2,3-dihydro-1H-inden-1-yl)carbamate]  0.0513 µM
21. COc1cc2c(cc1-c1cc(C)c(OC)c(C)c1)CC(C)(C)C2NC(=O)O[C@@H]1CN2CCC1CC2 (stereo partly drawn) [Example 329, (S)-quinuclidin-3-yl (6-methoxy-5-(4-methoxy-3,5-dimethylphenyl)-2,2-dimethyl-2,3-dihydro-1H-inden-1-yl)carbamate]  0.0658 µM
22. O=C(NC1CCc2cc(-c3ccccc3OC(F)(F)F)ccc21)O[C@@H]1CN2CCC1CC2 (stereo partly drawn) [Example 12, (S)-quinuclidin-3-yl (5-(2-(trifluoromethoxy)phenyl)-2,3-dihydro-1H-inden-1-yl)carbamate]  0.073 µM
23. CC1(C)Cc2ccc(-c3ccccc3Cl)cc2C1NC(=O)O[C@@H]1CN2CCC1CC2 (stereo partly drawn) [Example 58, (S)-quinuclidin-3-yl (6-(2-chlorophenyl)-2,2-dimethyl-2,3-dihydro-1H-inden-1-yl)carbamate]  0.0878 µM
24. O=C(NC1CCc2cc(-c3cc(Cl)cc(Cl)c3)ccc21)O[C@@H]1CN2CCC1CC2 (stereo partly drawn) [Example 22, (S)-quinuclidin-3-yl (5-(3,5-dichlorophenyl)-2,3-dihydro-1H-inden-1-yl)carbamate]  0.0896 µM
25. Cc1cc(-c2cc3c(cc2F)C(NC(=O)O[C@@H]2CN4CCC2CC4)C(C)(C)C3)cc(C)c1OC(C)C (stereo partly drawn) [Example 388, (S)-quinuclidin-3-yl (6-fluoro-5-(4-isopropoxy-3,5-dimethylphenyl)-2,2-dimethyl-2,3-dihydro-1H-inden-1-yl)carbamate]  0.0931 µM
